The record followed here is patent US20170037028A1 (BAYER PHARMA AKTIENGESELLSCHAFT, priority 2013, published 2017).

Each structure is given as a SMILES string.

For this assay, the target named is T1, GLUT1 (Homo sapiens, UniProt P11166).
T1 sequence (P11166 1-492): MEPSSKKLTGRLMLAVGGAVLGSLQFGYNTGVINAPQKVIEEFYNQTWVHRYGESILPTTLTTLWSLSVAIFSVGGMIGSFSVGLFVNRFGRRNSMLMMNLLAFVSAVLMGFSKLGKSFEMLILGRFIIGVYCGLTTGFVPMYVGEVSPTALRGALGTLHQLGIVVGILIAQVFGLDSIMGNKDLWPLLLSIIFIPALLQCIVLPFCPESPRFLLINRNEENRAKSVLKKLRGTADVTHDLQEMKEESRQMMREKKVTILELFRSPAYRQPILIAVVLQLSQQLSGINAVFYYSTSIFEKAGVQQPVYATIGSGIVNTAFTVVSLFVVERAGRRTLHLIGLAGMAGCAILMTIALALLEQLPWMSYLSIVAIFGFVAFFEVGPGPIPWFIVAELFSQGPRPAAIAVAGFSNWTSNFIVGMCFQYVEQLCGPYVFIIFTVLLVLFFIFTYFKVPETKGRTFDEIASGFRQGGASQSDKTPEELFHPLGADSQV
Nature of the assay: Indirect measurement of GLUT1 activity by quantification of intracellular ATP levels (glucose induced ATP increase). Details: endogenous in cells; host or cells: DLD1 or CHO-K1. It counts as cell-based. The following applies: read-out: IC50 regarding glucose induced ATP increase (GLUT1 inhibition). Summed up: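 DLD1 or CHO-K1 cells were starved overnight in glucose-free medium with 1% FCS, then combined with an oxidative phosphorylation inhibitor. GLUT1 activity was read as glucose-induced ATP increase, GLUT2 as fructose-induced. Intracellular ATP was quantified by CellTiter-Glo luminescence.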
As usually defined, the IC50 is the point on the concentration scale where inhibition reaches its midpoint. Regarding `COc1cc(C(=O)Nc2c(C(F)(F)F)nn(Cc3ccc(C#N)cn3)c2C)c2ccccc2n1` [Example 365, N-{1-[(5-cyanopyridin-2-yl)methyl]-5-methyl-3-(trifluoromethyl)-1H-pyrazol-4-yl}-2-methoxyquinoline-4-carboxamide], the IC50 was found to be 26.6 nM.

For `CNC(=O)c1nn(Cc2ccc(F)cc2)c(C)c1NC(=O)c1cc(OC)nc2ccccc12` [Example 1253], the IC50 worked out at 1970 nM.

Regarding `Cc1nn(Cc2ccc(C(N)=O)cc2)c(C)c1NC(=O)c1cc(C(N)=O)nc2cc(F)ccc12` [Example 1424], the IC50 stood at 69.1 nM. To `Cc1nn(Cc2cccc(C#N)c2)c(C)c1NC(=O)c1cc(C(F)(F)F)nc2ccc(Br)cc12` [Example 71, 6-bromo-N-[1-(3-cyanobenzyl)-3,5-dimethyl-1H-pyrazol-4-yl]-2-(trifluoromethyl)quinoline-4-carboxamide] belongs 175 nM. With `COc1ccc(CCCn2nc(C)c(NC(=O)c3cc(OC)nc4ccccc34)c2C)cc1` [Example 1109], the concentration for half-maximal inhibition (IC50) amounted to 54.2 nM. Take `CC(=O)c1cccc(Cn2nc(C(F)(F)F)c(NC(=O)c3cc(C(N)=O)nc4ccccc34)c2C)c1` [Example 1622]: the IC50 was 50.1 nM. The result for `Cc1nn(Cc2ccc(S(C)(=O)=O)cc2)c(C)c1NC(=O)c1cc(C(N)=O)nc2cc(F)c(Cl)cc12` [Example 1485] reads 5.3 nM. Turning to `Cc1nn(Cc2ncccc2C#N)c(C)c1NC(=O)c1cc(C(N)=O)nc2cc(F)c(Cl)cc12` [Example 1411], the concentration for half-maximal inhibition (IC50) came to 3.2 nM. Regarding `Cc1nn(Cc2ccc(C(=O)NCCN(C)C)cn2)c(C)c1NC(=O)c1cc(C(F)(F)F)nc2ccc(Br)cc12` [Example 1292], the IC50 stood at 7380 nM. On to `Cc1c(NC(=O)c2cc(C(N)=O)nc3cc(F)c(Br)cc23)c(C(F)(F)F)nn1Cc1ccc(C#N)cc1` [Example 1611], for which the IC50 was 0.8 nM. The result for `Cc1nn(Cc2cnn(C)c2C)c(C)c1NC(=O)c1cc(C(N)=O)nc2ccccc12` [Example 1567] reads 84.4 nM; that for `Cc1c(NC(=O)c2cc(C(N)=O)nc3ccccc23)c(C(F)(F)F)nn1Cc1ccc(CC#N)cc1` [Example 1592], 1.3 nM; that for `Cc1nn(Cc2ccc(C#N)cc2)c(C)c1NC(=O)c1cc(C(N)=O)nc2ccc(Cl)cc12` [Example 261, 6-chloro-N^4-[1-(4-cyanobenzyl)-3,5-dimethyl-1H-pyrazol-4-yl]quinoline-2,4-dicarboxamide], 0.5 nM. The result for `Cc1c(NC(=O)c2cc(C(N)=O)nc3cc(F)c(Cl)cc23)c(C(F)(F)F)nn1Cc1ccc(C(F)(F)F)cc1` [Example 1589] reads 13.9 nM; that for `Cc1nn(Cc2ccc(C(F)(F)F)cc2)c(C)c1NC(=O)c1cc(C(N)=O)nc2cccc(F)c12` [Example 1600], 3.5 nM; that for `Cc1nn(Cc2ccc(OC(F)(F)F)cc2)c(C)c1NC(=O)c1cc(C(N)=O)nc2cc(F)ccc12` [Example 1461], 8.7 nM. To `Cc1nn(Cc2ccc(F)cc2)c(C)c1NC(=O)c1c2c(nc3ccccc13)CCC2` [Example 1249] belongs 1670 nM; to `Cc1nn(Cc2ccc(CC(=O)O)cc2)c(C)c1NC(=O)c1cc(C(F)(F)F)nc2ccc(Br)cc12` [Example 151, (4-{[4-({[6-bromo-2-(trifluoromethyl)quinolin-4-yl]carbonyl}amino)-3,5-dimethyl-1H-pyrazol-1-yl]methyl}phenyl)acetic acid], 1280 nM; to `Cc1nn(Cc2cccc(C#N)c2)c(C)c1NC(=O)c1cc(C(N)=O)nc2cc(F)ccc12` [Example 1454], 13.3 nM. For the molecule `Cc1nn(Cc2ccccc2O)c(C)c1NC(=O)c1cc(C(F)(F)F)nc2c(Cl)cc(Cl)cc12` [Example 1071], the IC50 was found to be 21 nM.

As for `CNC(=O)c1cc(C(=O)Nc2c(C)nn(Cc3ccc(F)cc3)c2C)c2ccccc2n1` [Example 172, N^4-[1-(4-fluorobenzyl)-3,5-dimethyl-1H-pyrazol-4-yl]-N^2-methylquinoline-2,4-dicarboxamide], the IC50 is 59.1 nM. To `CCc1nc(Cn2nc(C(F)(F)F)c(NC(=O)c3cc(C(N)=O)nc4ccccc34)c2C)no1` [Example 1535] belongs 22.5 nM; to `Cc1cc(C(=O)Nc2c(C)nn(Cc3ccc(F)c(F)c3)c2C)c2cc(Br)ccc2n1` [Example 185, 6-bromo-N-[1-(3,4-difluorobenzyl)-3,5-dimethyl-1H-pyrazol-4-yl]-2-methylquinoline-4-carboxamide], 122 nM. To `COc1cc(C(=O)Nc2c(C)nn(Cc3c(F)cccc3F)c2C)c2ccccc2n1` [Example 42, N-[1-(2,6-difluorobenzyl)-3,5-dimethyl-1H-pyrazol-4-yl]-2-methoxyquinoline-4-carboxamide] belongs 30.9 nM.

As to `COc1cc(C#N)ccc1Cn1nc(C)c(NC(=O)c2cc(C(N)=O)nc3cc(F)c(Cl)cc23)c1C` [Example 1651], the IC50 came to 3.2 nM. The result for `CCc1nn(Cc2ccc(F)cc2)c(CC)c1NC(=O)c1cc(C(N)=O)nc2c(F)cccc12` [Example 1384] reads 425 nM; that for `Cc1nn(Cc2ccc(C#N)cc2F)c(C)c1NC(=O)c1cc(C(F)(F)F)nc2ccc(Br)cc12` [Example 1349], 7.5 nM. Regarding `Cc1nn(Cc2ccc(C(=O)NCCCCCO)cc2)c(C)c1NC(=O)c1cc(C(F)(F)F)nc2ccc(Br)cc12` [Example 1077], the 50% inhibitory concentration (IC50) was 23.1 nM. To `COc1cc(C(=O)Nc2c(C)nn(Cc3ccn(C)n3)c2C)c2ccccc2n1` [Example 1526] belongs 556 nM; to `Cc1nn(Cc2ccc(F)cc2C#N)c(C)c1NC(=O)c1cc(C(N)=O)nc2ccccc12` [Example 1661], 3.4 nM. Turning to `Cc1c(NC(=O)c2cc(C(N)=O)nc3cc(F)c(Cl)cc23)c(C(F)(F)F)nn1Cc1ncco1` [Example 1547], the 50% inhibitory concentration (IC50) amounted to 24 nM. To `COc1ccccc1Cn1nc(C(F)(F)F)c(NC(=O)c2cc(C(N)=O)nc3cccc(F)c23)c1C` [Example 1493] belongs 69.6 nM.

Take `COc1cc(C(=O)Nc2c(C)nn(Cc3ccc(C#N)cn3)c2C)c2ccccc2n1` [Example 357, N-{1-[(5-cyanopyridin-2-yl)methyl]-3,5-dimethyl-1H-pyrazol-4-yl}-2-methoxyquinoline-4-carboxamide]: the IC50 is 28.8 nM. As to `Cc1nn(Cc2ccc(Cl)s2)c(C)c1NC(=O)c1cc(C(F)(F)F)nc2ccc(Br)cc12` [Example 180, 6-bromo-N-{1-[(5-chlorothiophen-2-yl)methyl]-3,5-dimethyl-1H-pyrazol-4-yl}-2-(trifluoromethyl)quinoline-4-carboxamide], the IC50 came out at 93.7 nM. To `Cc1nn(Cc2ccc(OC(F)(F)F)cc2)c(C)c1NC(=O)c1cc(C(F)(F)F)nc2c(Cl)cc(Cl)cc12` [Example 60, 6,8-dichloro-N-{3,5-dimethyl-1-[4-(trifluoromethoxy)benzyl]-1H-pyrazol-4-yl}-2-(trifluoromethyl)quinoline-4-carboxamide] belongs 97.9 nM; to `CCc1c(NC(=O)c2cc(C(N)=O)nc3cc(F)ccc23)c(C(F)(F)F)nn1Cc1ccc(C#N)cc1` [Example 315, N^4-[1-(4-cyanobenzyl)-5-ethyl-3-(trifluoromethyl)-1H-pyrazol-4-yl]-7-fluoroquinoline-2,4-dicarboxamide], 16 nM; to `Cc1c(NC(=O)c2cc(C(N)=O)nc3ccccc23)c(C(F)(F)F)nn1Cc1ccc(F)cc1C#N` [Example 1659], 4.7 nM. As for `Cc1nn(Cc2ccncc2)c(C)c1NC(=O)c1cc(C(F)(F)F)nc2ccc(Br)cc12` [Example 160, 6-bromo-N-[3,5-dimethyl-1-(pyridin-4-ylmethyl)-1H-pyrazol-4-yl]-2-(trifluoromethyl)quinoline-4-carboxamide], the IC50 is 14.3 nM. To `Cc1nn(Cc2ccc(F)cc2)c(C)c1NC(=O)c1cc(C(C)C)nc2ccc(Br)cc12` [Example 2, 6-bromo-N-[1-(4-fluorobenzyl)-3,5-dimethyl-1H-pyrazol-4-yl]-2-(propan-2-yl)quinoline-4-carboxamide] belongs 2.8 nM. To `Cc1cccc(Cn2nc(C)c(NC(=O)c3cc(C(N)=O)nc4cccc(F)c34)c2C)c1` [Example 1475] belongs 8.4 nM; to `Cc1nn(Cc2ccc(C(=O)N3CCC3)cc2)c(C)c1NC(=O)c1cc(C(F)(F)F)nc2ccc(Br)cc12` [Example 1037], 5.3 nM. To `COCc1noc(Cn2nc(C)c(NC(=O)c3cc(C(F)(F)F)nc4ccc(Br)cc34)c2C)n1` [Example 1507] belongs 711 nM; to `Cc1nn(Cc2ccccc2)c(C)c1NC(=O)c1cc(C(F)(F)F)nc2c(Cl)cc(Cl)cc12` [Example 59, N-(1-benzyl-3,5-dimethyl-1H-pyrazol-4-yl)-6,8-dichloro-2-(trifluoromethyl)quinoline-4-carboxamide], 92.6 nM; to `CCN(C(=O)c1cc(C(F)(F)F)nc2ccc(Br)cc12)c1c(C)nn(Cc2ccc(F)cc2)c1C` [Example 176, 6-bromo-N-ethyl-N-[1-(4-fluorobenzyl)-3,5-dimethyl-1H-pyrazol-4-yl]-2-(trifluoromethyl)quinoline-4-carboxamide], 72.2 nM.
